From patent US5952294A, “Peptidyl prodrugs and methods of making and using the same” (University of Pittsburgh of the Commonwealth System of …, priority 1996, dated 1999)
Values after ≈ are worked out from the molar mass of the structure shown.

What was measured:
[1] = Release of ara-C from prodrugs in human plasma by HPLC; assay type: in vitro ADME; details: pH 7.4, 22° C.
Protocol: (§1) HPLC studies of the cyclization process in plasma were performed on a 4 mg/ml solution of prodrug in plasma. At appropriate time intervals, 25 microliter aliquots were removed and 0.20 ml of CH3 CN was added to precipitate the protein. After centrifugation, about 25 microliters of clear supernatant liquid was injected directly into the HPLC port. The HPLC analysis was performed with a C-18 reverse phase column using an H2 O/CH3 CN (1:1) eluent and the UV detector was set at 250 nm. The relative concentration of ara-C was determined by the relative peak areas. […] The disappearance of characteristic signals of the prodrugs was accompanied by the appearance of signals of ara-C and the corresponding heterocycles. […] FIGS. 6 through 8 plot the percent concentration of prodrug over time. Table 1 below provides the half life (in hours) for ara-C release of prodrugs 10, 15, 17 and 19 as determined by NMR and HPLC analysis.

[2] = tested on: Murine L-1210 leukemia cells; assay: L-1210 cell line growth inhibition assay; assay type: cell-based
Protocol: The antiproliferation activity of compounds 10, 15, 17 and 19, as compared to ara-C, was tested in an L-1210 cell line growth inhibition assay using various concentrations and continuous exposure. Cell numbers were determined 72 hours after initial drug exposure. Murine L-1210 leukemia cells were grown in suspension using Dulbecco's medium (Gibco/BRL) supplemented with 10% fetal bovine serum (FBS, HyClone), […] of L-glutamine, 100 U/ml penicillin G sodium, and 100 μg/m1 streptomycin (Gibco/BRL). Cells were grown in a humidified incubator as 37° C. under an atmosphere of 95% air and 5% CO2. Cells were routinely passaged at a 1:5 ratio and found to be free of mycoplasma contamination.

[3] = Release of ara-C from prodrugs in bovine plasma by HPLC; assay type: in vitro ADME; details: pH 7.4, 22° C.
Protocol: as §1

[4] = Release of ara-C from prodrugs (cyclization) in CD3OD or D2O monitored by 1H NMR; assay type: physicochemical; details: for Half-life (hours) for release of ara-C, t1/2: 22° C., 1H NMR
Protocol: The stability of the ara-C prodrug compounds 10, 15, 17 and 19, prepared according to Example 1, in various reaction media was investigated by NMR and HPLC analyses. The ^1 H NMR studies of the cyclization process were performed on a 4 mg/ml solution of prodrug in CD3 OD or D2 O. Sodium acetate (2 mg) or acetic acid (2 microliters) were added neat to the samples to control the pH. The spectra were collected in appropriate time intervals, and the ratio of prodrug to drug was determined by comparing the integration of the H-C (6) on the nucleoside of prodrug and ara-C.

[5] = tested on: human promyelocytic leukemia HL-60 cells; assay: Induction of apoptosis (morphology) in HL-60 cells; assay type: cell-based; details: for Maximum percentage of cells exhibiting frank apoptotic morphology: FIG. 9; for Appearance of apoptotic bodies / increase in apoptosis: 24 hours exposure, about 10 micromols
Protocol: (§2) The ability of the prodrug compounds to kill human tumor cells was tested, specifically their ability to induce apoptosis in human promyelocytic leukemia HL-60 cells. These cells are known to undergo apoptosis following exposure to ara-C. The ability of the prodrugs to cause internucleosomal DNA fragmentation, a characteristic feature of apoptosis in HL-60 cells, was also investigated. The HL-60 were cultured in essentially the same manner as the L-1210 cells, only using Iscoue's modification for the medium. Internucleosomal DNA fragmentation was determined as follows. Following the indicated drug treatments, aliquots of cells (1×10^6) were pelleted by centrifugation at 100×g for 5 minutes, washed with PBS, solubilized with 20 microliters of lysis buffer (10 mM EDTA, 0.5% sarkosyl, 1 mg/ml proteinase K, 50 mM Tris, pH8), and incubated at 50° C. for 1 hour. After incubation, RNaseA (Boehringer Mannheim) was added to a final concentration of 0.33 mg/ml and incubated for an additional hour at 37° C. The lysate was loaded into dry wells of a 1.8% agarose gel, the wells were sealed with low melting point agarose, and the DNA was electrophoresed using Tris-phosphate-EDTA (TPE) running buffer. After electrophoresis, the DNA was stained by immersion of the gel in water containing 1 μg/ml ethidium bromide (Sigma). The DNA was visualized and photographed using an ultraviolet transilluminator.
The formation of apoptotic bodies occurred within a maximal halftime of 4 hours and there was no noticeable difference in the kinetics of apoptosis among ara-C, 10, 15 and 17.

[6] = Stability in bovine or human plasma by HPLC (plasma not distinguished); assay type: in vitro ADME; details: for Cyclization / stability in plasma: bovine or human plasma, HPLC
Protocol: as §1
The stability of these compounds in bovine and human plasma was determined by HPLC analysis (Entry 5 and 6 in Table 1).

[7] = total; cited from earlier work
[8] = tested on: human promyelocytic leukemia HL-60 cells; assay: Internucleosomal DNA fragmentation in HL-60 cells; assay type: cell-based
Protocol: as §2, with “These cells are known to undergo apoptosis following exposure to ara-C.” left out
DNA fragmentation of the compounds was tested.

[9] = continuous exposure, cell numbers 72 hours after initial drug exposure
[10] = Mus musculus, L1210, continuous exposure, cell numbers 72 hours after initial drug exposure

Half-life (hours) for release of ara-C, t1/2 [1] | L-1210 Cell Growth Inhibition IC50 [2, 9] | L-1210 Cell Growth Inhibition IC90 [2, 9] | Half-life (hours) for release of ara-C, t1/2 [3] | Half-life (hours) for release of ara-C, t1/2 ([4]; CD3OD) | Half-life (hours) for release of ara-C, t1/2 ([4]; CD3OD, HOAc) | Half-life (hours) for release of ara-C, t1/2 ([4]; CD3OD, NaOAc) | Cyclization / stability in plasma [6] | Compound | IC50 and IC90 values compared with ara-C control ([2]; L-1210 cells) | Maximal halftime of formation of apoptotic bodies [5] | Maximum percentage of cells exhibiting frank apoptotic morphology [5] | Appearance of apoptotic bodies / increase in apoptosis [5] | further results
0.3 h | 1.0 ng/mL | 3.4 ng/mL | 0.4 h | 360 h | 860 h | 1.4 h | cyclize readily | Glc-Aib-ara-C [Compound 17] | essentially identical to the ara-C control | ≤ 4 h | approximately 25% | – | –
0.4 h | 1.1 ng/mL | 3.4 ng/mL | 0.5 h | > 1000 h | > 1000 h | 1.3 h | cyclize readily | Aib-Aib-ara-C hydrochloride [Compound 15] | essentially identical to the ara-C control | ≤ 4 h | approximately 25% | – | –
0.3 h | 1.3 ng/mL | 5 ng/mL | 0.4 h | 42 h | 31 h | 0.3 h | cyclize readily | CC(C)(NC(=O)[C@@H](N)Cc1ccc(OCc2ccccc2)cc1)C(=O)Nc1ccn([C@@H]2O[C@H](CO)[C@@H](O)[C@@H]2O)c(=O)n1.Cl [Compound 10, Tyr(OBn)-Aib-ara-C hydrochloride] | essentially identical to the ara-C control | ≤ 4 h | approximately 25% | – | Faster cyclization upon change from CD3OD to D2O ([4]; D2O versus CD3OD): about 50%; Half-life (hours) for release of ara-C, t1/2 ([4]; D2O): 21 h
– | – | – | – | – | – | – | – | Nc1ccn([C@@H]2O[C@H](CO)[C@@H](O)[C@@H]2O)c(=O)n1 [ara-C, 1-(β-D-arabinofuranosyl) cytosine, reference compound] | – | ≤ 4 h | approximately 25% | obvious apoptotic bodies | IC50 [2, 10]: 1.5 ng/mL (≈ 0.00617 µM); IC90 [2, 10]: 4.3 ng/mL (≈ 0.0177 µM); Fraction of dose excreted in the urine within 24 hours [7]: About 80%; Internucleosomal DNA fragmentation ([8]; about 10 micromols, 4 hours): displayed internucleosomal 180-200 base pair DNA fragments
> 10 h | 600 ng/mL | 1400 ng/mL | > 10 h | > 2000 h | > 2000 h | 800 h | good stability | CC(C)(N)C(=O)NNC(=O)Nc1ccn([C@@H]2O[C@H](CO)[C@@H](O)[C@@H]2O)c(=O)n1.Cl [Compound 19, Aib-2-Azagly-ara-C hydrochloride] | – | – | – | no obvious increase in apoptosis | Times less toxic than ara-C in L-1210 test ([2]; L-1210 cells, versus ara-C): about 500 times; Cyclization to release the drug ([4]; in the presence of NaOAc): extremely slow; Cyclization to release the drug ([4]; neutral or acid conditions): did not undergo cyclization; Apoptotic activity after preincubation ([5]; compound preincubated in serum-free medium for 15 days, FIG. 10): slightly less than ara-C; ara-C detected in plasma after 48 hours ([6]; plasma, after 48 hours): No ara-C was detected; DNA fragmentation after preincubation ([8]; compound preincubated in serum-free medium for 15 days): DNA ladders similar ara-C
